Measurements as given in patent US10550105B2 (Ribon Therapeutics Inc., priority 2018, dated 2020).

Each compound was assayed against PARP7 (Homo sapiens (Human), UniProt Q7Z3E1) (assay: Enzymatic assay for inhibition of PARP7: TR-FRET displacement of biotinylated Probe A from the TIPARP active site). Conditions: Table A-1.
Type: binding
Experimental: 20 nL of a dose response curve of each test compound was spotted in black 384-well polystyrene proxiplates (Perkin Elmer) using a Mosquito (TTP Labtech). […] Reactions were incubated at 25° C. for an additional 30 min, then read on an Envision platereader equipped with a LANCE/DELFIA top mirror (Perkin Elmer) using excitation of 320 nm and emission of 615 nm and […] with a 90 μs delay. The ratio of the 665/615 nm emission were calculated for each well to determine the amount of complex of TIPARP and Probe A in each well. […] The Hill Coefficient is normally allowed to float but may also be fixed at 1 in a 3-parameter fit. Y is the % inhibition and x is the compound concentration.

Chain of PARP7 (Q7Z3E1 whole entry): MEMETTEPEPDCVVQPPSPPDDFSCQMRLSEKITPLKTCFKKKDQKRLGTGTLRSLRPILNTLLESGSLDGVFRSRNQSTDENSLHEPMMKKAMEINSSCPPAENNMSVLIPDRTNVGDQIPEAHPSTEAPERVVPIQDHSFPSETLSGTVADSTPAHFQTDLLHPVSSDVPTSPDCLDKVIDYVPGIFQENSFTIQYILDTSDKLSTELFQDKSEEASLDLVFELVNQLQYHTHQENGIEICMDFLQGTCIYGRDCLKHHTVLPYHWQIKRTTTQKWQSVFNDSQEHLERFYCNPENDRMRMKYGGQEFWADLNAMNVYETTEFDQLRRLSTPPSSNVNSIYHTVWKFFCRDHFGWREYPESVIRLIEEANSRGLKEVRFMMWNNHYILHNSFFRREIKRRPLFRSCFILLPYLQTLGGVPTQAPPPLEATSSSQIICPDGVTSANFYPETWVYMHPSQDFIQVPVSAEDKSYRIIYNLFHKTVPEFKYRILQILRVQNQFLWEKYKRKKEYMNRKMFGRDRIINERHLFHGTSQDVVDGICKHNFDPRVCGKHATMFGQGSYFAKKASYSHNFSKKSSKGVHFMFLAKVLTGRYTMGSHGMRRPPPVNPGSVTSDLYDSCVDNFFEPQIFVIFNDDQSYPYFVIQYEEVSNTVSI

Q: Which IC50 does the source give for CC(=O)N1CCN(C(=O)c2cccc(OC[C@@H]3CCCN3c3cn[nH]c(=O)c3C(F)(F)F)c2)CC1 [Example 449, (S)-5-(2-((3-(4-Acetylpiperazine-1-carbonyl)phenoxy)methyl)pyrrolidin-1-yl)-4-(trifluoromethyl)pyridazin-3(2H)-one] here?
A: Its IC50 is 100 to 1000 nM.

Q: For O=C(CCOCCNc1cn[nH]c(=O)c1Cl)N1CCN(c2ccc(C(F)(F)F)cn2)CC1 [Example 509, 4-Chloro-5-[[2-(3-oxo-3-[4-[5-(trifluoromethyl)pyridin-2-yl]piperazin-1-yl]propoxy)ethyl]amino]-2,3-dihydropyridazin-3-one], which IC50 is on record?
A: The IC50 was under 100 nM.

Q: For Cc1c(N2Cc3ccccc3C2)cn[nH]c1=O [Example 159, 5-(Isoindolin-2-yl)-4-methylpyridazin-3(2H)-one], which IC50 is on record?
A: The IC50 was at least 1000 nM.

Q: For O=c1[nH]ncc(N2Cc3ccncc3C2)c1Cl [Example 152, 4-Chloro-5-(1,3-dihydro-2H-pyrrolo[3,4-c]pyridin-2-yl)pyridazin-3(2H)-one], which IC50 is on record?
A: The IC50 was 100 to 1000 nM.

Q: With COC[C@@H](CO[C@@H](C)CC(=O)N1CCN(c2ccc(C#N)cn2)CC1)Oc1cn[nH]c(=O)c1C(F)(F)F (single isomer, unassigned) [Example 571 Isomer B] as the compound, how does the IC50 read?
A: Its IC50 is 100 to 1000 nM.

Q: For O=C(C[C@@H]1CC[C@H](COc2cn[nH]c(=O)c2Cl)O1)N1CCN(c2ncc(C(F)(F)F)cn2)CC1 [Example 575 Isomer D, 4-Chloro-5-(((2R,5S)-5-(2-oxo-2-(4-(5-(trifluoromethyl)pyrimidin-2-yl)piperazin-1-yl)ethyl)-tetrahydrofuran-2-yl)methoxy)pyridazin-3(2H)-one], which IC50 is on record?
A: The IC50 was at least 1000 nM.

Q: With CNCCOc1ccc2c(n1)CN(c1cn[nH]c(=O)c1C(F)(F)F)C2 [Example 318, 5-(2-(2-(Methylamino)ethoxy)-5,7-dihydro-6H-pyrrolo[3,4-b]pyridin-6-yl)-4-(trifluoromethyl)pyridazin-3(2H)-one] as the compound, how does the IC50 read?
A: The IC50 was 100 to 1000 nM.

Q: Which IC50 does the source give for CC[C@@H](COCCC(=O)N1CCN(c2ncc(Cl)cn2)CC1)Oc1cn[nH]c(=O)c1Br [Example 727, (S)-4-Bromo-5-((1-(3-(4-(5-chloropyrimidin-2-yl)piperazin-1-yl)-3-oxopropoxy)butan-2-yl)oxy)pyridazin-3(2H)-one] here?
A: The IC50 was under 100 nM.

Q: N#Cc1ccc(N2CCN(C(=O)c3cc(OC[C@@H]4c5ccccc5CN4c4cn[nH]c(=O)c4C(F)(F)F)ccn3)CC2)nc1 [Example 357, (S)-6-(4-(4-((2-(6-Oxo-5-(trifluoromethyl)-1,6-dihydropyridazin-4-yl)isoindolin-1-yl)methoxy)picolinoyl)piperazin-1-yl)nicotinonitrile] was tested. Which IC50 did it give?
A: The IC50 was under 100 nM.

Q: With N#Cc1ccc(N2CCN(C(=O)CCOC[C@H](Nc3cn[nH]c(=O)c3C(F)(F)F)c3ccncc3)CC2)nc1 [Example 527B, 6-(4-[3-[(2R)-2-[[6-Oxo-5-(trifluoromethyl)-1,6-dihydropyridazin-4-yl]amino]-2-(pyridin-4-yl)ethoxy]propanoyl]piperazin-1-yl)pyridine-3-carbonitrile] as the compound, how does the IC50 read?
A: The IC50 was at least 1000 nM.

Q: Which IC50 does the source give for O=C(CCOC[C@H](CC1CCNCC1)Nc1cn[nH]c(=O)c1C(F)(F)F)N1CCN(c2ncc(C(F)(F)F)cn2)CC1 [Example 648, (S)-5-((1-(3-Oxo-3-(4-(5-(trifluoromethyl)pyrimidin-2-yl)piperazin-1-yl)propoxy)-3-(piperidin-4-yl)propan-2-yl)amino)-4-(trifluoromethyl)pyridazin-3(2H)-one] here?
A: Its IC50 is at least 1000 nM.

Q: CC(C)c1c(N2Cc3ccc(O[C@@H]4CCCNC4)cc3C2)cn[nH]c1=O [Example 292, (R)-4-Isopropyl-5-(5-(piperidin-3-yloxy)isoindolin-2-yl)pyridazin-3(2H)-one] was tested. Which IC50 did it give?
A: The IC50 was at least 1000 nM.

Q: With O=C(C[C@H]1CC[C@H]([C@@H]2CCCN2c2cn[nH]c(=O)c2C(F)(F)F)O1)N1CCN(c2ncc(C(F)(F)F)cn2)CC1 [Example 149D, 5-[(2S)-2-[(2R,5R)-5-(2-oxo-2-[4-[5-(trifluoromethyl)pyrimidin-2-yl]piperazin-1-yl]ethyl)oxolan-2-yl]pyrrolidin-1-yl]-4-(trifluoromethyl)-2,3-dihydropyridazin-3-one] as the compound, how does the IC50 read?
A: The IC50 was under 100 nM.

Q: N#Cc1ccc(N2CCN(C(=O)C[C@@H]3CC[C@@H]([C@H]4c5ccccc5CN4c4cn[nH]c(=O)c4C(F)(F)F)O3)CC2)nc1 (single isomer, unassigned) [Example 612 Isomer D] was tested. Which IC50 did it give?
A: Its IC50 is at least 1000 nM.

Q: For N#Cc1ccc(OC2CCC(NC(=O)COC[C@@H]3CCCN3c3cn[nH]c(=O)c3C(F)(F)F)CC2)nc1 (stereo partly drawn) [Example 47, N-[4-[(5-cyanopyridin-2-yl)oxy]cyclohexyl]-2-[[(2S)-1-[6-oxo-5-(trifluoromethyl)-1,6-dihydropyridazin-4-yl]pyrrolidin-2-yl]methoxy]acetamide], which IC50 is on record?
A: The IC50 was under 100 nM.

Q: For N#Cc1c(N2Cc3cccc(OC4CCNCC4)c3C2)cn[nH]c1=O [Example 182, 3-Oxo-5-(4-(piperidin-4-yloxy)isoindolin-2-yl)-2,3-dihydropyridazine-4-carbonitrile formic acid], which IC50 is on record?
A: The IC50 was at least 1000 nM.

Q: With C[C@@H](COCCC(=O)N1CCN(c2ccc(CN)cn2)CC1)Oc1cn[nH]c(=O)c1C(F)(F)F [Example 673, (S)-5-((1-(3-(4-(5-(Aminomethyl)pyridin-2-yl)piperazin-1-yl)-3-oxopropoxy)propan-2-yl)oxy)-4-(trifluoromethyl)pyridazin-3(2H)-one] as the compound, how does the IC50 read?
A: The IC50 was under 100 nM.

Q: C[C@@H](COCCC(=O)N1CCN(c2ncc(C(C)(F)F)cn2)CC1)Nc1cn[nH]c(=O)c1C(F)(F)F [Example 707, (S)-5-((1-(3-(4-(5-(1,1-Difluoroethyl)pyrimidin-2-yl)piperazin-1-yl)-3-oxopropoxy)propan-2-yl)amino)-4-(trifluoromethyl)pyridazin-3(2H)-one] was tested. Which IC50 did it give?
A: The IC50 was under 100 nM.

Q: With C[C@H](COc1cn[nH]c(=O)c1C(F)(F)F)OCCC(=O)N1CCN(c2ncc(Cl)cn2)CC1 (single isomer, unassigned) [Example 543 Isomer C] as the compound, how does the IC50 read?
A: Its IC50 is under 100 nM.

Q: COCC1C[C@@H](COCCC(=O)N2CCN(c3ccc(C#N)cn3)CC2)N(c2cn[nH]c(=O)c2C(F)(F)F)C1 (stereo partly drawn) [Example 139, 6-[4-(3-[[(2S)-4-(methoxymethyl)-1-[6-oxo-5-(trifluoromethyl)-1,6-dihydropyridazin-4-yl]pyrrolidin-2-yl]methoxy]propanoyl)piperazin-1-yl]pyridine-3-carbonitrile] was tested. Which IC50 did it give?
A: The IC50 was under 100 nM.

Q: With Cc1cnc(N2CCN(C(=O)CCOC[C@H](C)Oc3cn[nH]c(=O)c3C(F)(F)F)CC2)nc1 [Example 687, (S)-5-((1-(3-(4-(5-Methylpyrimidin-2-yl)piperazin-1-yl)-3-oxopropoxy)propan-2-yl)oxy)-4-(trifluoromethyl)pyridazin-3(2H)-one] as the compound, how does the IC50 read?
A: The IC50 was under 100 nM.

Q: With O=C(C[C@@H]1CC[C@H]([C@@H]2CCCN2c2cn[nH]c(=O)c2C(F)(F)F)O1)N1CCN(c2ncc(C(F)(F)F)cn2)CC1 [Example 149C, 5-[(2S)-2-[(2R,5S)-5-(2-oxo-2-[4-[5-(trifluoromethyl)pyrimidin-2-yl]piperazin-1-yl]ethyl)oxolan-2-yl]pyrrolidin-1-yl]-4-(trifluoromethyl)-2,3-dihydropyridazin-3-one] as the compound, how does the IC50 read?
A: The IC50 was under 100 nM.

Q: Which IC50 does the source give for N#Cc1ccc(N2CCN(C(=O)CCNC[C@@H]3c4ccccc4CN3c3cn[nH]c(=O)c3Cl)CC2)nc1 [Example 426, (S)-6-(4-(3-(((2-(5-Chloro-6-oxo-1,6-dihydropyridazin-4-yl)isoindolin-1-yl)methyl)amino)propanoyl)piperazin-1-yl)nicotinonitrile] here?
A: Its IC50 is under 100 nM.

Q: O=c1[nH]ncc(N2Cc3cccc(Cl)c3C2)c1C(F)(F)F [Example 265, 5-(4-Chloroisoindolin-2-yl)-4-(trifluoromethyl)pyridazin-3(2H)-one] was tested. Which IC50 did it give?
A: Its IC50 is under 100 nM.

Q: Which IC50 does the source give for C[C@@H](COCCC(=O)N1CCN(c2ccc(Cl)cn2)CC1)Oc1cn[nH]c(=O)c1C(F)(F)F (single isomer, unassigned) [Example 539 Isomer A] here?
A: The IC50 was under 100 nM.

Q: With O=C(C[C@H]1CC[C@H](COc2cn[nH]c(=O)c2C(F)(F)F)O1)N1CCN(c2ccc(C(F)(F)F)cn2)CC1 (single isomer, unassigned) [Example 545 Isomer C] as the compound, how does the IC50 read?
A: The IC50 was under 100 nM.

Q: For O=c1[nH]ncc(N2Cc3ccnc(OC4CCNCC4)c3C2)c1C(F)(F)F [Example 16, 5-[4-(piperidin-4-yloxy)-1H,2H,3H-pyrrolo[3,4-c]pyridin-2-yl]-4-(trifluoromethyl)-2,3-dihydropyridazin-3-one], which IC50 is on record?
A: Its IC50 is 100 to 1000 nM.

Q: For O=c1[nH]ncc(N2Cc3cccc(OCc4cccnc4)c3C2)c1C(F)(F)F [Example 197, 5-(4-(Pyridin-3-ylmethoxy)isoindolin-2-yl)-4-(trifluoromethyl)pyridazin-3(2H)-one], which IC50 is on record?
A: The IC50 was under 100 nM.

Q: For O=c1[nH]ncc(N2Cc3cc(OC4CCNCC4)cc(F)c3C2)c1C(F)(F)F [Example 3, 5-[4-fluoro-6-(piperidin-4-yloxy)-2,3-dihydro-1H-isoindol-2-yl]-4-(trifluoromethyl)-2,3-dihydropyridazin-3-one; formic acid], which IC50 is on record?
A: The IC50 was under 100 nM.

Q: O=c1[nH]ncc(N2Cc3cc(F)c(OCC4CCCNC4)cc3C2)c1C(F)(F)F (centres unmarked) [Example 44, 5-[5-fluoro-6-(piperidin-3-ylmethoxy)-2,3-dihydro-1H-isoindol-2-yl]-4-(trifluoromethyl)-2,3-dihydropyridazin-3-one] was tested. Which IC50 did it give?
A: The IC50 was under 100 nM.

Q: How did the IC50 turn out when O=C(c1cccc(OCC2c3ccccc3CN2c2cn[nH]c(=O)c2C(F)(F)F)c1)N1CCN(c2ncc(C(F)(F)F)cn2)CC1 (centres unmarked) [Example 377, 4-(Trifluoromethyl)-5-(1-((3-(4-(5-(trifluoromethyl)pyrimidin-2-yl)piperazine-1-carbonyl)phenoxy)methyl)isoindolin-2-yl)pyridazin-3(2H)-one] was run?
A: Its IC50 is under 100 nM.

Q: O=C(C[C@@H]1CC[C@H](CNc2cn[nH]c(=O)c2C(F)(F)F)O1)N1CCN(c2ncc(C(F)(F)F)cn2)CC1 [Example 568 Isomer D, 5-((((2R,5S)-5-(2-Oxo-2-(4-(5-(trifluoromethyl)pyrimidin-2-yl)piperazin-1-yl)ethyl)tetrahydrofuran-2-yl)methyl)amino)-4-(trifluoromethyl)pyridazin-3(2H)-one] was tested. Which IC50 did it give?
A: The IC50 was under 100 nM.
